Experimental data: PubChem BioAssay AID248 (DTP/NCI, 2004)
Values joined by “and” are separate entries in the source; they are usually repeats but may differ in a detail not shown here. Equal values may be shown once. Inconclusive results and toxic doses are left out. Rule as the data show it: active = T/C of 150% or more; inactive = T/C below 125%.

System: L1210 leukemia ip in BDF1 mice, survival T/C
Test: NCI In Vivo Anticancer Drug Screen. Data for tumor model L1210 Leukemia (intraperitoneal) in B6D2F1 (BDF1) mice
Details: endpoint: mean survival time, higher = longer survival
In short: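 Read-out is survival time, reported as the treated-group measurement over the vehicle-control measurement.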

[1] = dose: 25.0 mg/kg/injection, schedule: Q04DX002 (ip), vehicle: saline with Tween-80
[2] = dose: 50.0 mg/kg/injection, schedule: Q04DX002 (ip), vehicle: saline with Tween-80
[3] = dose: 100.0 mg/kg/injection, schedule: Q04DX002 (ip), vehicle: saline with Tween-80
[4] = dose: 100.0 mg/kg/injection, schedule: Q01DX001 (ip), vehicle: carboxymethylcellulose (CMC)
[5] = dose: 200.0 mg/kg/injection, schedule: Q01DX001 (ip), vehicle: carboxymethylcellulose (CMC)
[6] = dose: 400.0 mg/kg/injection, schedule: Q01DX001 (ip), vehicle: carboxymethylcellulose (CMC)
[7] = dose: 100.0 mg/kg/injection, schedule: Q01DX001 (ip), vehicle: saline
[8] = dose: 100.0 mg/kg/injection, schedule: Q01DX009 (ip), vehicle: saline
[9] = dose: 200.0 mg/kg/injection, schedule: Q01DX001 (ip), vehicle: saline
[10] = dose: 200.0 mg/kg/injection, schedule: Q01DX009 (ip), vehicle: saline
[11] = dose: 400.0 mg/kg/injection, schedule: Q01DX001 (ip), vehicle: saline
[12] = dose: 400.0 mg/kg/injection, schedule: Q01DX009 (ip), vehicle: saline
[13] = dose: 100.0 mg/kg/injection, schedule: Q04DX003 (ip), vehicle: saline
[14] = dose: 200.0 mg/kg/injection, schedule: Q04DX003 (ip), vehicle: saline
[15] = dose: 400.0 mg/kg/injection, schedule: Q04DX003 (ip), vehicle: saline
[16] = dose: 75.0 mg/kg/injection, schedule: Q01DX001 (ip), vehicle: other
[17] = dose: 150.0 mg/kg/injection, schedule: Q01DX001 (ip), vehicle: other
[18] = dose: 100.0 mg/kg/injection, schedule: Q04DX003 (ip), vehicle: Klucel (hydroxypropylcellulose) (HPC)
[19] = dose: 200.0 mg/kg/injection, schedule: Q04DX003 (ip), vehicle: Klucel (hydroxypropylcellulose) (HPC)
[20] = dose: 400.0 mg/kg/injection, schedule: Q04DX003 (ip), vehicle: Klucel (hydroxypropylcellulose) (HPC)
[21] = dose: 75.0 mg/kg/injection, schedule: Q04DX003 (ip), vehicle: other
[22] = dose: 150.0 mg/kg/injection, schedule: Q04DX003 (ip), vehicle: other
[23] = dose: 300.0 mg/kg/injection, schedule: Q01DX001 (ip), vehicle: other

Measured: T/C

CC[N+](CC)(CC)CC(=O)c1ccc(Br)cc1
inactive: [1] 97 % of control | [2] 97 % of control | [3] 87 % of control and 92 % of control

CNc1nc(N)nc(Nc2ccc(I)cc2)c1N=O
inactive: [4] 105 % of control | dose: 100.0 mg/kg/injection, schedule: Q01DX009 (ip), vehicle: acetone 107 % of control | dose: 100.0 mg/kg/injection, schedule: Q04DX003 (ip), vehicle: acetone 115 % of control | [5] 110 % of control | dose: 200.0 mg/kg/injection, schedule: Q01DX009 (ip), vehicle: acetone 107 % of control | dose: 200.0 mg/kg/injection, schedule: Q04DX003 (ip), vehicle: acetone 105 % of control | [6] 100 % of control | dose: 400.0 mg/kg/injection, schedule: Q01DX009 (ip), vehicle: acetone 98 % of control | dose: 400.0 mg/kg/injection, schedule: Q04DX003 (ip), vehicle: acetone 98 % of control

O=NC1C(Cl)C2CC1C1c3ccccc3C21 (stereo not given)
inactive: [7] 95 % of control | [8] 89 % of control | [9] 104 % of control | [10] 93 % of control | [11] 93 % of control | [12] 89 % of control

O=C(CCl)OCCCl
inactive: [1] 95 % of control | [2] 103 % of control | [3] 93 % of control and 95 % of control

Oc1ccc(F)c2cccnc12
inactive: dose: 50.0 mg/kg/injection, schedule: Q01DX001 (ip), vehicle: carboxymethylcellulose (CMC) 101 % of control

CCOC(=O)N1NC(=O)CC1(C)C
inactive: [13] 105 % of control | [14] 105 % of control | [15] 102 % of control

CCSC1OC(C(COC(C)=O)OC(C)=O)C(OC(C)=O)C1SCC (stereo not given)
inactive: dose: 100.0 mg/kg/injection, schedule: Q04DX003 (ip), vehicle: other 97 % of control | dose: 200.0 mg/kg/injection, schedule: Q04DX003 (ip), vehicle: other 103 % of control | dose: 400.0 mg/kg/injection, schedule: Q04DX003 (ip), vehicle: other 101 % of control

CC(=O)Nc1ccc(S(=O)(=O)Cl)cc1
inactive: [16] 94 % of control | [13] 108 % of control | [17] 88 % of control | [14] 92 % of control | [15] 90 % of control

CC(C)(CN=Cc1cccc(O)c1)N=Cc1cccc(O)c1
inactive: dose: 75.0 mg/kg/injection, schedule: Q01DX009 (ip), vehicle: DMSO 95 % of control | dose: 100.0 mg/kg/injection, schedule: Q01DX001 (ip), vehicle: DMSO 100 % of control | dose: 100.0 mg/kg/injection, schedule: Q04DX003 (ip), vehicle: DMSO 89 % of control | dose: 150.0 mg/kg/injection, schedule: Q01DX009 (ip), vehicle: DMSO 93 % of control | dose: 200.0 mg/kg/injection, schedule: Q01DX001 (ip), vehicle: DMSO 96 % of control | dose: 200.0 mg/kg/injection, schedule: Q04DX003 (ip), vehicle: DMSO 88 % of control | dose: 400.0 mg/kg/injection, schedule: Q01DX001 (ip), vehicle: DMSO 100 % of control | dose: 400.0 mg/kg/injection, schedule: Q04DX003 (ip), vehicle: DMSO 89 % of control

COc1c2ccc(-c3ccccc3)oc-2cc(=O)c1C
inactive: dose: 100.0 mg/kg/injection, schedule: Q04DX002 (ip), vehicle: Klucel (hydroxypropylcellulose) (HPC) 104 % of control | dose: 200.0 mg/kg/injection, schedule: Q04DX002 (ip), vehicle: Klucel (hydroxypropylcellulose) (HPC) 96 % of control | dose: 400.0 mg/kg/injection, schedule: Q04DX002 (ip), vehicle: Klucel (hydroxypropylcellulose) (HPC) 93 % of control

O=[N+]([O-])c1cccc(S(=O)(=O)NNc2ccc(Br)cc2)c1
inactive: [18] 96 % of control | [19] 93 % of control | [20] 89 % of control

CCOC(=O)C(Cc1c[nH]c2ccccc12)[N+](=O)[O-] (stereo not given)
inactive: dose: 100.0 mg/kg/injection, schedule: Q04DX003 (sc), vehicle: olive oil, sesame oil, peanut oil 97 % of control | dose: 200.0 mg/kg/injection, schedule: Q04DX003 (sc), vehicle: olive oil, sesame oil, peanut oil 98 % of control | dose: 400.0 mg/kg/injection, schedule: Q04DX003 (sc), vehicle: olive oil, sesame oil, peanut oil 101 % of control

CCCCN(CCCC)CCNc1cc(C)nc(/N=C(\N)Nc2ccc(Cl)c(Cl)c2)n1
inactive: dose: 38.0 mg/kg/injection, schedule: Q01DX009 (ip), vehicle: other 91 % of control | dose: 38.0 mg/kg/injection, schedule: Q04DX003 (ip), vehicle: other 104 % of control | [16] 101 % of control | dose: 75.0 mg/kg/injection, schedule: Q01DX009 (ip), vehicle: other 105 % of control | [21] 114 % of control | [17] 103 % of control | [22] 87 % of control | [23] 95 % of control

CCCCc1nc2c(O)ccc(O)c2nc1C
inactive: [16] 93 % of control | [21] 101 % of control | [17] 88 % of control | [22] 104 % of control | [23] 87 % of control

CC(C)(C)C(=O)CC(=O)C(C)(C)C.CC(C)(C)C(=O)CC(=O)C(C)(C)C.CC(C)(C)C(=O)CC(=O)C(C)(C)C.[Al]
inactive: dose: 100.0 mg/kg/injection, schedule: Q01DX009 (ip), vehicle: Klucel (hydroxypropylcellulose) (HPC) 91 % of control | [18] 91 % of control | dose: 200.0 mg/kg/injection, schedule: Q01DX009 (ip), vehicle: Klucel (hydroxypropylcellulose) (HPC) 94 % of control | [19] 94 % of control | dose: 400.0 mg/kg/injection, schedule: Q01DX009 (ip), vehicle: Klucel (hydroxypropylcellulose) (HPC) 97 % of control | [20] 95 % of control

O=S1(=O)CCC(O)C1 (stereo not given)
inactive: [7] 92 % of control | [8] 93 % of control | [9] 97 % of control | [10] 105 % of control | [11] 100 % of control | [12] 100 % of control

Nc1nc(Br)c(Br)nc1N
inactive: dose: 100.0 mg/kg/injection, schedule: Q04DX003 (ip), vehicle: saline with Tween-80 104 % of control | dose: 200.0 mg/kg/injection, schedule: Q04DX003 (ip), vehicle: saline with Tween-80 96 % of control | dose: 400.0 mg/kg/injection, schedule: Q04DX003 (ip), vehicle: saline with Tween-80 93 % of control

CN(N=O)C(=O)NCCNC(=O)N(C)N=O
inactive: dose: 150.0 mg/kg/injection, schedule: Q01DX Z (ip), vehicle: carboxymethylcellulose (CMC) 108 % of control

O=[N+]([O-])c1ccccc1C/C=C/CCl
inactive: [4] 100 % of control | [5] 96 % of control | [6] 94 % of control

O=C(O)/C(=C\c1ccccc1[N+](=O)[O-])c1ccccc1Cl
inactive: dose: 100.0 mg/kg/injection, schedule: Q01DX009 (ip), vehicle: saline with Tween-80 106 % of control | dose: 200.0 mg/kg/injection, schedule: Q01DX009 (ip), vehicle: saline with Tween-80 98 % of control | dose: 400.0 mg/kg/injection, schedule: Q01DX009 (ip), vehicle: saline with Tween-80 95 % of control
